Measurements: paper PMC4199632, “Exploring the Anti-Cancer Activity of Novel Thiosemicarbazones Generated through the Combination of Retro-Fragments: Dissection of Critical Structure-Activity Relationships” (PLoS ONE, 2014)

Tests used:
[1] = Ascorbate oxidation assay (iron complexes); format: biochemical; conditions: iron complex, IBE 3; FeIII 10 µM, ascorbate 100 µM
Protocol: The ability of the iron complexes of the novel ligands to mediate the oxidation of the physiological substrate, ascorbate, was examined using established methods, [18], [22], [52], [53]. Ascorbic acid (100 µM) was prepared immediately prior to each experiment and was incubated in the presence of Fe^III (10 µM; as FeCl3), the chelator (1–60 µM) and a 50-fold molar excess of citrate (500 µM). The absorbance at 265 nm was measured after 10 and 40 min and the difference in absorbance at these time points was calculated. The results of these experiments were expressed as iron-binding equivalents (IBE) due to the different denticity of the chelators examined. The chelators, Dp44mT, DFO and ethylenediaminetetraacetic acid (EDTA) were used as controls as the ability of their iron complexes to oxidize ascorbate has been extensively characterized, [15], [52], [53].
The ability of the iron complexes of the novel TSCs to catalyze the oxidation of the physiological substrate, ascorbate, was important to assess as redox cycling may play a critical role in their anti-proliferative activity, [15], [18], [52], [53]. Thus, the oxidation of ascorbate mediated by the iron complexes of series 1–6 were examined in comparison to the iron complexes of the control compounds, DFO, EDTA and Dp44mT, as the ability of the latter to oxidize ascorbate is well characterized, [15], [52], [53], [68]. The results were expressed as a percentage of the control (no chelator) at iron-binding equivalents (IBEs) of 0.1 (excess “free” iron), 1 (iron-chelator complexes with a fully filled coordination sphere), or 3 (excess free chelator), due to the different denticity of the chelators examined (Fig. 10).
Figure 10 Effect of the iron complexes of (A) series 1, (B) series 2, (C) series 3, (D) series 4, (E) series 5 and (F) series 6 chelators, relative to DFO, Dp44mT and EDTA, on ascorbate oxidation. Chelators at iron-binding equivalent (IBE) ratios of 0.1, 1, and 3 were incubated in the presence of Fe^III (10 µM) and ascorbate (100 µM). The UV-Vis absorbance at 265 nm was recorded after 10 and 40 min, and the difference between the time points was calculated. Results are mean ±SD (3 experiments).

[2] = tested on: HCT116 p53+/+, HCT116 p53−/−, Raji, HeLa, SK-N-MC and NHDF cells; assay: Proliferation assay, ranges stated over several cell-types; format: cell-based, human; conditions: for IC50: Homo sapiens, HCT-116, range over HCT116 p53+/+ and p53−/− cells and over the compounds named, read-out: IC50 range in HCT116 cells; for Therapeutic index, NHDF relative to HCT116 cells: range over HCT116 p53+/+ and p53−/− and over the compounds named
Protocol: (§1) The human cancer cell types (neuroepithelioma (SK-N-MC), colon cancer (HCT116 with wild-type p53 (p53^+/+)), Burkitt's lymphoma (Raji) and cervical carcinoma (HeLa)) cells and normal human dermal fibroblasts (NHDF) were obtained from the American Type Culture Collection (ATCC, Manassas, VA, USA). HCT116 null p53 (p53^−/−) cells were obtained from the Maria Sklodowska-Curie Memorial Cancer Center and Institute of Oncology, Poland.
(§2) The SK-N-MC cells were cultured in minimum essential medium (MEM; Life Technologies, Grand Island, New York, USA) containing 10% (v/v) fetal bovine serum (FBS; Life Technologies), 1 mM sodium pyruvate (Life Technologies), 1% (v/v) non-essential amino acids (Life Technologies), 2 mM L-glutamine (Life Technologies), 100 U/mL penicillin (Life Technologies), 100 µg/mL streptomycin (Life Technologies) and 0.28 µg/mL fungizone (Bristol Myers Squibb Pharmaceuticals, Montreal, Canada). The HCT116 and NHDF cells were grown in Dulbecco's modified Eagle's medium (DMEM; Sigma-Aldrich) supplemented with 12% (v/v) heat-inactivated FBS (HCT116; Life Technologies) or 15% (v/v) FBS (NHDF; Life Technologies), 100 µg/mL of gentamicin (Polfa Warszawa S.A., Warsaw, Poland), 100 µg/mL of streptomycin (Polfa) and 100 U/mL of penicillin (Polfa). The Raji and HeLa cells were cultured in Roswell Park Memorial Institute medium (RPMI-1640; Sigma-Aldrich) with the addition of 10% (v/v) heat-inactivated FBS (Life Technologies) and the supplements described for SK-N-MC cells above. All cell lines were cultured under standard conditions at 37°C in a humidified atmosphere at 5% CO2 and were subcultured every 3–4 days as required.
(§3) The cells were seeded in 96-well plates (SK-N-MC: 1.5×10^4 cells/well; HeLa: 5.0×10^3 cells/well; Raji: 3.0×10^3 cells/well; HCT116: 3.5×10^3 cells/well; NHDF: 3.0×10^3 cells/well) 24 h prior to the addition of the novel compounds. The assays were performed using a 72 h (SK-N-MC, Raji, HeLa) or 96 h (HCT 116, NHDF) incubation period with the agents at 37°C. […] Additionally, DFO and Dp44mT were included as positive controls in all experiments as their activity is well characterized, [42], [50].
(§4) Chelator stock solutions were prepared in DMSO and diluted in media so that the final [DMSO] <0.05%. The results were expressed as a percentage of the control and the resulting IC50 values were calculated using GraphPad Prism 5 (GraphPad Software, Inc., La Jolla, CA, USA). The IC50 was defined as the concentration necessary to reduce the absorbance to 50% of the untreated control. Each individual compound was tested in triplicate in a single experiment, with each experiment being repeated three times. After incubation of HCT 116 and NHDF cells with the tested compounds, 20 µL of the CellTiter 96 Aqueous One Solution - MTS (Promega, Madison, WI, USA) solution was added to each well (with 100 µL of DMEM without phenol red) and incubated for 1 h/37°C. The optical density of the samples was analyzed at 490 nm.
(§5) MTT (3-[4,5-dimethylthiazol-2-yl]-2,5-diphenyltetrazolium bromide) was used to evaluate the anti-proliferative effects of the chelators in SK-N-MC and Raji cells. Following incubation with the investigated compounds, 10 µL of MTT (5 mg/mL in PBS; Sigma-Aldrich) was added to each well. After a 2 h (SK-N-MC) or 4 h (Raji) incubation, the plates were centrifuged, and the cells were lysed with 100 µL of 10% SDS-50% isobutanol in 0.01 M HCl (SK-N-MC) or DMSO (Raji). The absorbance was measured at 570 nm. The anti-proliferative effects of these novel agents on HeLa cells were estimated using crystal violet staining (0.5% crystal violet solution for 10 min). Finally, the wells were rinsed with water and the cells were lysed with 2% SDS. The optical density of the samples was analyzed at 595 nm.

[3] = tested on: HCT116 p53−/− colon cancer cells; assay: Proliferation assay (MTS, 96 h); format: cell-based, human; conditions: for IC50: 96 h incubation, MTS, mean ±SD (3 experiments); for Therapeutic index NHDF vs. HCT116 p53−/−: NHDF cell IC50 divided by HCT116 p53−/− IC50
Protocol: as §1, §2, §3, §4

[4] = tested on: HCT116 p53+/+ colon cancer cells; assay: Proliferation assay (MTS, 96 h); format: cell-based, human; conditions: for IC50: Homo sapiens, HCT-116, 96 h incubation, MTS, mean ±SD (3 experiments); for Therapeutic index NHDF vs. HCT116 p53+/+: NHDF cell IC50 divided by HCT116 p53+/+ IC50
Protocol: as §1, §2, §3, §4

[5] = tested on: HeLa cervical carcinoma cells; assay: Proliferation assay (crystal violet, 72 h); format: cell-based; conditions: Homo sapiens, 72 h incubation, mean ±SD (3 experiments)
Protocol: as §1, §2, §3, §4, §5

[6] = tested on: SK-N-MC neuroepithelioma cells; assay: Proliferation assay (MTT, 72 h); format: cell-based; conditions: Homo sapiens, 72 h incubation, mean ±SD (3 experiments)
Protocol: as §1, §2, §3, §4, §5

[7] = tested on: Raji Burkitt's lymphoma cells; assay: Proliferation assay (MTT, 72 h); format: cell-based; conditions: Homo sapiens, 72 h incubation, mean ±SD (3 experiments)
Protocol: as §1, §2, §3, §4, §5

[8] = tested on: normal human dermal fibroblast (NHDF) cells; assay: Proliferation assay (MTS, 96 h), normal mortal cells; format: cell-based; conditions: 96 h incubation, mean ±SD (3 experiments)
Protocol: as §1, §2, §3, §4

SK-N-MC cells = assay: Inhibition of cellular 59Fe uptake from 59Fe2-Tf; format: cell-based, human; conditions: chelator 25 µM, 59Fe2-Tf 0.75 µM, 3 h/37°C
Protocol: The iron transport protein, Tf (Sigma-Aldrich), was labeled with ^59Fe (PerkinElmer Life and Analytical Sciences, Boston, MA) to form ^59Fe2-Tf using standard methods, [7]. Unbound ^59Fe was removed by passage through a Sephadex G25 column and was followed by exhaustive dialysis, [7].
The ability of the chelators to prevent the cellular uptake of ^59Fe from ^59Fe2-Tf was examined using standard methods, [14], [17], [18], [50]. A monolayer of SK-N-MC cells was incubated with medium containing ^59Fe2-Tf (0.75 µM) and the chelator (25 µM) for 3 h at 37°C. The medium was then removed and the cells were washed four times with ice-cold PBS. The cells were then incubated for 30 min at 4°C with the general protease, Pronase (1 mg/mL; Sigma-Aldrich), to remove membrane-bound ^59Fe. The cells were removed using a plastic spatula and centrifuged at 14,000 rpm/1 min to separate internalized from membrane-bound ^59Fe. The cell pellet was resuspended in 1 mL of PBS and the internalized ^59Fe was measured on a γ-scintillation counter. Internalized ^59Fe uptake was calculated as a percentage of the control (medium alone). Again, the novel ligands were compared to DFO and Dp44mT as their ability to inhibit cellular ^59Fe uptake has been extensively characterized using SK-N-MC cells, [14], [17], [18], [50].
Figure 8 Effect of (A) series 1, (B) series 2, (C) series 3, (D) series 4, (E) series 5 and (F) series 6 chelators, relative to the controls DFO and Dp44mT, on ^59Fe uptake from ^59Fe-transferrin by SK-N-MC cells. Cells were incubated for 3 h/37°C with ^59Fe-transferrin (0.75 µM) in the presence or absence of the chelators (25 µM). At the end of this incubation, cells were washed 4 times with ice-cold PBS. Internalization of ^59Fe was assessed by incubation for 30 min/4°C with the protease, Pronase (1 mg/mL). Cellular ^59Fe was then assessed using a γ-scintillation counter. Results are mean ±SD (3 experiments).

Row | Structure (SMILES) | IC50 [2] [nM] | IC50 ([3]; Homo sapiens, HCT-116, 96 h) [nM] | IC50 [4] [nM] | IC50 [5] [nM] | IC50 [6] [nM] | IC50 [7] [nM] | IC50 [3] [nM] | Ascorbate oxidation (% of the control) [1] | Therapeutic index, NHDF relative to HCT116 cells [2] | Therapeutic index NHDF vs. HCT116 p53−/− [3] | Therapeutic index NHDF vs. HCT116 p53+/+ [4] | IC50 ([8]; Homo sapiens, NHDF, 96 h) [nM] | IC50 [8] [nM] | Internalized 59Fe uptake from 59Fe2-Tf (% of the control) (SK-N-MC cells) | Decrease in anti-proliferative efficacy, HCT116 p53+/+ vs HCT116 p53−/− ([2]; comparison of IC50 in HCT116 p53+/+ and p53−/− cells) [fold]
1 | S=C(NN=C(c1ccccn1)c1ccccn1)N1CCN(c2ccccc2)CC1 [1b] | 0.8 to 90 | 0.8 ± 0.1 | 0.8 ± 0.1 | 570 ± 160 | 50 ± 10 | 0.3 ± 0.03 |  | 200–265% | 2 | 2 | 2 | 1.7 ± 0.7 |  |  | 
2 | S=C(NN=C(c1ccccn1)c1ccccn1)N1CCN(c2ccccn2)CC1 [1d, Z-N′-(di(pyridin-2-yl)methylene)-4-(pyridin-2-yl)piperazine-1-carbothiohydrazide] | 2 to 17 | 9 ± 1 | 2 | 30 ± 20 | 20 ± 10 | 1.3 ± 0.1 |  | 200–265% | 18–2650 | 18 | 80 | 160 to 10600 | 160 ± 40 |  | 
3 | S=C(N/N=C/c1cnc2ccccc2n1)N1CCOCC1 [5c] |  | 5840 ± 1650 | 2030 ± 1240 | 860 ± 90 | 2870 ± 1250 | 240 ± 40 |  |  |  |  |  | 11600 ± 1800 |  | 3.6–11.5% | 
4 | Oc1ccccc1/C=N/NC(=S)N1CCOCC1 [6c] |  | 16400 ± 3100 | 15400 ± 1700 | 18200 ± 1300 | > 6250 | 3790 ± 80 |  |  |  |  |  | > 25000 |  | 3.6–11.5% | 

The next lines start with results.

Row | IC50 [2] [nM] | IC50 ([3]; Homo sapiens, HCT-116, 96 h) [nM] | IC50 [4] [nM] | IC50 [5] [nM] | IC50 [6] [nM] | IC50 [7] [nM] | IC50 [3] [nM] | Structure (SMILES) | Ascorbate oxidation (% of the control) [1] | Therapeutic index, NHDF relative to HCT116 cells [2] | Therapeutic index NHDF vs. HCT116 p53−/− [3] | Therapeutic index NHDF vs. HCT116 p53+/+ [4] | IC50 ([8]; Homo sapiens, NHDF, 96 h) [nM] | IC50 [8] [nM] | Internalized 59Fe uptake from 59Fe2-Tf (% of the control) (SK-N-MC cells) | Decrease in anti-proliferative efficacy, HCT116 p53+/+ vs HCT116 p53−/− ([2]; comparison of IC50 in HCT116 p53+/+ and p53−/− cells) [fold]
5 |  | 5000 | 50 ± 30 | 2390 ± 20 | > 6250 | 40 ± 20 | 5010 ± 2550 | Oc1cccc2ccc(/C=N/NC(=S)N3CCN(c4cnccn4)CC3)nc12 [3e] |  |  |  |  | 12100 ± 3600 |  |  | 100
6 |  | 4350 ± 1350 | 3110 ± 1920 | 2570 ± 460 | > 6250 | 10 |  | CN(C(=S)N/N=C/c1ccc2cccc(O)c2n1)C1CCCCC1 [3f] |  |  |  |  | 5360 ± 1990 |  | 3.6–11.5% | 
